Each compound was assayed against human plasma kallikrein (Homo sapiens, UniProt P03952) (assay: Kallikrein inhibition FLINT assay with quenched AMC peptide substrate Z-Gly-Pro-Arg-AMC (end point EP or kinetic KIN reads)). Settings: kinetic reads at 5 min intervals over 30 min; read-out: Kallikrein (KIN) IC50.
Sequence of human plasma kallikrein (P03952 391-638 limits assumed): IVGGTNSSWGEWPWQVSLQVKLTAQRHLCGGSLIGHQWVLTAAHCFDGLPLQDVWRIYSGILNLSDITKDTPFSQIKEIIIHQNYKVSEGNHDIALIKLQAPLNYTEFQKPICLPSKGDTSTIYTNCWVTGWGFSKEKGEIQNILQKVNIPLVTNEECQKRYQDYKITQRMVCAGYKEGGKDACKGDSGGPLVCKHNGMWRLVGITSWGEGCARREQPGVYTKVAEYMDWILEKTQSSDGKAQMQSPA
Sequence of human plasma kallikrein (P03952 20-390 partner limits assumed): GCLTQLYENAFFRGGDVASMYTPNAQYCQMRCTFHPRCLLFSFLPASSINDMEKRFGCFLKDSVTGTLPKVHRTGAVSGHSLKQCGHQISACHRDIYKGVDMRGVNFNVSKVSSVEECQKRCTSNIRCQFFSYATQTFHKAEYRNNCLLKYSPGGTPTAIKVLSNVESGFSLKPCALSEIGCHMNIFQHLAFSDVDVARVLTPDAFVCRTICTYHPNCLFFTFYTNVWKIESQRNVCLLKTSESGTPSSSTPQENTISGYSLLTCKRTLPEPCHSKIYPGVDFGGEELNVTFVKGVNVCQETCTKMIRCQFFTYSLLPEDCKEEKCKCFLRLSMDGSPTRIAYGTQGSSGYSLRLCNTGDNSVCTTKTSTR
Assay type: biochemical
Procedure, shortened: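 Enzyme and compound were preincubated 30 min before adding 50 μM AMC substrate in pH 7.5 Tris/NaCl/CaCl2/BSA/CHAPS buffer. AMC release was read at 30 min endpoint or every 5 min.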
`O=C(O)c1ccc(-c2cnn(C(Cc3ccn(C(F)F)n3)c3ccc(-c4c(C(F)F)ccc(Cl)c4F)c[n+]3[O-])c2)cc1` (single isomer, unassigned) [Example Q70] was tested, and the IC50 was greater than 274 nM.
`[O-][n+]1cc(-c2c(-n3cnnn3)ccc(Cl)c2F)ccc1[C@@H](CC1CC1)n1cc(-c2ncnn2C(F)F)cn1` [Example P762] gave an IC50 of 249 nM.
`[O-][n+]1cc(-c2c(-n3cnnn3)ccc(Cl)c2F)ccc1C(CC1CC1)n1cc(-c2ccnn2C(F)F)cn1` (stereo not shown) [Example P542] was tested, and the IC50 was 302 nM.
`[O-][n+]1cc(-c2c(-n3cnnn3)ccc(Cl)c2F)ccc1[C@@H](CC1CC1)n1cc(-c2cn(C(F)F)nn2)cn1` [Example P594] gave an IC50 of 247 nM.
In the case of `NC(=O)c1ccc(-c2cnn(C(CC3CC3)c3ccc(-c4c(-n5cnnn5)ccc(Cl)c4F)c[n+]3[O-])c2)cc1F` (single isomer, unassigned) [Example P946], the IC50 is reported as 834 nM.
For `NC(=O)c1cnn(CC(c2ccc(-c3c(-n4cnnn4)ccc(Cl)c3F)c[n+]2[O-])n2cc(-c3ccnc(C(F)(F)F)c3)cn2)c1` (stereo not shown) [Example P483], the IC50 was 9.1 nM.
`NC(=O)c1ccc(-c2cnn(C(CN3CCCC3=O)c3ccc(-c4c(-n5cc(C(F)(F)F)nn5)ccc(Cl)c4F)c[n+]3[O-])c2)cc1F` (single isomer, unassigned) [Example P936] was tested, and the IC50 was 397 nM.
In the case of `[O-][n+]1cc(-c2c(-n3cnnn3)ccc(Cl)c2F)ccc1[C@@H](Cc1ccc(F)cc1)n1cc(-c2ccn(C(F)F)n2)cn1` [Example P569], the IC50 is reported as 7.5 nM.
`[O-][n+]1cc(-c2c(-n3cnnn3)ccc(Cl)c2F)ccc1[C@@H](Cc1ccc(C(F)F)cc1)n1cc(-c2cnnn2C(F)F)cn1` [Example P731] showed an IC50 of 64.9 nM.
Work on `Nc1nc(Cl)c(-c2cnn(C(CC3CC3)c3ccc(-c4c(-n5cnnn5)ccc(Cl)c4F)c[n+]3[O-])c2)s1` (stereo not shown) [Example P624] yielded an IC50 of 4.9 nM.
`CC(C)(O)C[C@H](c1ccc(-c2c(-n3cnnn3)ccc(Cl)c2F)c[n+]1[O-])n1cc(-c2ccnn2C(F)F)cn1` [Example P648] gave an IC50 of 532 nM.
In the case of `CC1CC1C[C@H](c1ccc(-c2c(-n3cnnn3)ccc(Cl)c2F)c[n+]1[O-])n1cc(-c2c(F)nnn2C)cn1` (stereo partly shown) [Example P768], the IC50 is reported as 70.5 nM.
In the case of `O=c1ccccn1CC(c1ccc(-c2c(-n3cnnn3)ccc(Cl)c2F)c[n+]1[O-])n1cc(-c2ccnc(C(F)(F)F)c2)cn1` (stereo not shown) [Example P358], the IC50 is reported as 81.9 nM.
With `[O-][n+]1cc(-c2c(-n3cnnn3)ccc(Cl)c2F)ccc1[C@@H](CCOC(F)F)n1cc(-c2cnn(C(F)F)n2)cn1` [Example P674] the IC50 was 54.9 nM.
With `[O-][n+]1cc(-c2c(-n3cnnn3)ccc(Cl)c2F)ccc1[C@@H](CCOC(F)F)n1cc(-c2cnnn2C(F)F)cn1` [Example P676] the IC50 was 11.8 nM.
With `O=C(O)c1ccc(-c2cnn(C(Cc3ccn(C(F)F)n3)c3ccc(-c4c(-n5cc(C(F)(F)F)nn5)ccc(Cl)c4F)c[n+]3[O-])c2)cc1` (single isomer, unassigned) [Example P900] the IC50 was 2.2 nM.
Work on `O=C(O)c1ccc(-c2cnn([C@H](CCOC(F)F)c3ccc(-c4c(-n5cc(C(F)(F)F)nn5)ccc(Cl)c4F)c[n+]3[O-])c2)cc1` [Example P858] yielded an IC50 of 11.6 nM.
`Cn1nnc(F)c1-c1cnn(C(Cc2ccn(C(F)F)n2)c2ccc(-c3c(-n4cc(Cl)nn4)ccc(Cl)c3F)c[n+]2[O-])c1` (stereo not shown) [Example P797] gave an IC50 of 23.8 nM.
`COC(=O)NC(C)c1ccc(-c2cnn(C(Cc3ccccc3)c3ccc(-c4cc(Cl)ccc4-n4cnnn4)c[n+]3[O-])c2)cc1` (stereo not shown) [Example P58] gave an IC50 of 28.5 nM.
In the case of `Cn1ncnc1-c1cnn(C(Cc2ncco2)c2ccc(-c3c(-n4cc(C(F)(F)F)nn4)ccc(Cl)c3F)c[n+]2[O-])c1` (stereo not shown) [Example P925], the IC50 is reported as 187 nM.
`Cn1ncnc1-c1cnn(C(CCOC(F)F)c2ccc(-c3c(-n4nncc4OC(F)F)ccc(Cl)c3F)c[n+]2[O-])c1` (single isomer, unassigned) [Example P800] gave an IC50 of 62.7 nM.
Work on `Cn1ncc(C[C@@H](c2ccc(-c3c(-n4cc(Cl)nn4)ccc(Cl)c3F)c[n+]2[O-])n2cc(-c3ccnc(C(F)(F)F)c3)cn2)n1` [Example P715] yielded an IC50 of 830 nM.
`[2H]C([2H])([2H])C([2H])([2H])CC(c1ccc(-c2c(-n3cc(Cl)nn3)ccc(Cl)c2F)c[n+]1[O-])n1cc(-c2ccc(C(N)=O)c(F)c2)cn1` (stereo not shown) [Example P926] was tested, and the IC50 was 19.2 nM.
With `NC(=O)C1CC1CC(c1ccc(-c2c(-n3cnnn3)ccc(Cl)c2F)c[n+]1[O-])n1cc(-c2ccncc2)cn1` (stereo not shown) [Example P260] the IC50 was 72.5 nM.
Compound `O=C(O)c1ccc(-c2cnn(C(CC3CC3C(=O)N3CCCC3)c3ccc(-c4cc(Cl)ccc4-n4cnnn4)c[n+]3[O-])c2)cc1` (stereo not shown) [Example P106] has an IC50 of 635 nM.
Work on `[O-][n+]1cc(-c2c(-n3cnnn3)ccc(Cl)c2F)ccc1C(CC1CC1)n1cc(-c2scnc2C(F)(F)F)cn1` (stereo not shown) [Example P540] yielded an IC50 of 471 nM.
`O=C(O)c1ccc(-c2cnn(C(CC3CC3c3ccc(-c4ccccc4)cc3)c3ccc(-c4cc(Cl)ccc4-n4cnnn4)c[n+]3[O-])c2)cc1` (stereo not shown) [Example P61] gave an IC50 of 51.9 nM.
Work on `O=C(C1CC1CC(c1ccc(-c2c(-n3cnnn3)ccc(Cl)c2F)c[n+]1[O-])n1cc(-c2ccncc2)cn1)N1CCC(C2CC2)C1` (stereo not shown) [Example P254] yielded an IC50 of 376 nM.
Work on `CC(C)(C)c1cc(-c2cnn(C(Cn3cc(F)cn3)c3ccc(-c4c(-n5cnnn5)ccc(Cl)c4F)c[n+]3[O-])c2)ccn1` (stereo not shown) [Example P395] yielded an IC50 of 25.5 nM.
In the case of `[O-][n+]1cc(-c2c(-n3cnnn3)ccc(Cl)c2F)ccc1[C@@H](CCOC(F)F)n1cc(-c2ccn(C(F)F)n2)cn1` [Example P563], the IC50 is reported as 25 nM.
`NC(=O)c1ccc(-c2cnn(C(CCOC(F)F)c3ccc(-c4c(-n5cc(Cl)nn5)ccc(Cl)c4F)c[n+]3[O-])c2)cc1` (single isomer, unassigned) [Example P896] showed an IC50 of 0.2 nM.
`[O-][n+]1cc(-c2c(-n3cc(Cl)nn3)ccc(Cl)c2F)ccc1C(Cn1cc(F)cn1)n1cc(-c2ccnc(C(F)(F)F)c2)cn1` (single isomer, unassigned) [Example P480] was tested, and the IC50 was 31.2 nM.
`COCC[C@H](c1ccc(-c2c(-n3cnnn3)ccc(Cl)c2F)c[n+]1[O-])n1cc(-c2c(Cl)cnn2C(F)F)cn1` [Example P623] showed an IC50 of 217 nM.
In the case of `NC(=O)Cc1ccnn1CC(c1ccc(-c2c(-n3cnnn3)ccc(Cl)c2F)c[n+]1[O-])n1cc(-c2ccnc(C(F)(F)F)c2)cn1` (stereo not shown) [Example P470], the IC50 is reported as 99.5 nM.
In the case of `N#Cc1cn(-c2ccc(Cl)c(F)c2-c2ccc([C@@H](CCOC(F)F)n3cc(-c4cnnn4C(F)F)cn3)[n+]([O-])c2)nn1` [Example P817], the IC50 is reported as 23.5 nM.
`Cn1ncnc1-c1cnn([C@H](Cc2ccn(C(F)F)n2)c2ccc(-c3c(-n4cc(C(F)(F)F)nn4)ccc(Cl)c3F)c[n+]2[O-])c1` [Example P816] was tested, and the IC50 was 86.3 nM.
`[O-][n+]1cc(-c2c(-n3cnnn3)ccc(Cl)c2F)ccc1[C@@H](Cc1ccc(C(F)(F)F)nc1)n1cc(-c2cncn2C(F)F)cn1` [Example P785] gave an IC50 of 32.9 nM.
`O=C(c1ccn(CC(c2ccc(-c3c(-n4cnnn4)ccc(Cl)c3F)c[n+]2[O-])n2cc(-c3ccnc(C(F)(F)F)c3)cn2)n1)N1CCCCC1` (single isomer, unassigned) [Example P449] was tested, and the IC50 was 12 nM.
Compound `Nc1ccc(-c2cnn(C(CC3CC3)c3ccc(-c4c(-n5cnnn5)ccc(Cl)c4F)c[n+]3[O-])c2)c(Cl)n1` (single isomer, unassigned) [Example P178] has an IC50 of 21.6 nM.
With `COC(=O)N(C)CC(c1ccc(-c2c(-n3cnnn3)ccc(Cl)c2F)c[n+]1[O-])n1cc(-c2ccnc(F)c2)cn1` (single isomer, unassigned) [Example P356] the IC50 was 30.7 nM.
With `O=C(O)c1ccc(-c2cnn(C(CC3CC3C(=O)N3CCC(c4ccccc4)C3)c3ccc(-c4cc(Cl)ccc4-n4cnnn4)c[n+]3[O-])c2)cc1` (single isomer, unassigned) [Example P101] the IC50 was 625 nM.
For `Cn1nccc1-c1cnn(C(CCOC(F)F)c2ccc(-c3c(-n4cnnn4)ccc(Cl)c3F)c[n+]2[O-])c1` (stereo not shown) [Example P487], the IC50 was 8.9 nM.
Compound `NC(=O)c1ccc(-c2cnn(C(Cc3ccn(C(F)F)n3)c3ccc(-c4c(-n5cc(C(F)(F)F)nn5)ccc(Cl)c4F)c[n+]3[O-])c2)cc1` (single isomer, unassigned) [Example P908] has an IC50 of 0.3 nM.
For `[O-][n+]1ccc(-c2cnn(C(Cc3ccc(Cl)cc3)c3ccc(-c4cc(Cl)ccc4-n4cnnn4)c[n+]3[O-])c2)cc1` (stereo not shown) [Example P172], the IC50 was 16.2 nM.
`Cn1cncc1-c1cnn(C(Cn2cc(F)cn2)c2ccc(-c3c(-n4cnnn4)ccc(Cl)c3F)c[n+]2[O-])c1` (stereo not shown) [Example P502] was tested, and the IC50 was 30.1 nM.
Compound `COCC(=O)Nc1ccc(-c2cnn(C(CC3CC3)c3ccc(-c4c(-n5cnnn5)ccc(Cl)c4F)c[n+]3[O-])c2)cc1` (stereo not shown) [Example P131] has an IC50 of 192 nM.
For `COCC[C@H](c1ccc(-c2c(-n3cnnn3)ccc(Cl)c2F)c[n+]1[O-])n1cc(-c2cnnn2C(F)F)cn1` [Example P690], the IC50 was 180 nM.
Work on `[O-][n+]1cc(-c2c(-n3cnnn3)ccc(Cl)c2F)ccc1[C@@H](CC1CC1)n1cc(-c2nnn(C(F)F)c2Cl)cn1` [Example P604] yielded an IC50 of 290 nM.
For `[O-][n+]1ccc(-c2cnn(C(CC3CC3)c3ccc(-c4c(-n5cnnn5)ccc(Cl)c4F)c[n+]3[O-])c2)cn1` (stereo not shown) [Example P398], the IC50 was 730 nM.
In the case of `COC(=O)N(C)CC(c1ccc(-c2c(-n3cnnn3)ccc(Cl)c2F)c[n+]1[O-])n1cc(-c2ccc(N)nc2F)cn1` (stereo not shown) [Example P482], the IC50 is reported as 22.9 nM.
`Cn1nnc(F)c1-c1cnn(C(CCOC(F)F)c2ccc(-c3c(-n4cnnn4)ccc(Cl)c3F)c[n+]2[O-])c1` (stereo not shown) [Example P749] showed an IC50 of 19.8 nM.
`[O-][n+]1cc(-c2c(-n3cnnn3)ccc(Cl)c2F)ccc1C(CCOC(F)F)n1cc(-c2cn(C(F)F)nn2)cn1` (single isomer, unassigned) [Example P659] gave an IC50 of 170 nM.
In the case of `[O-][n+]1cc(-c2c(-n3cnnn3)ccc(Cl)c2F)ccc1C(CC1CC1)n1cc(-c2ccncn2)cn1` (single isomer, unassigned) [Example P258], the IC50 is reported as 201 nM.
`[O-][n+]1ccc(-c2cnn(C(Cc3ccc(F)cc3)c3ccc(-c4c(OC(F)F)ccc(Cl)c4F)c[n+]3[O-])c2)cc1` (single isomer, unassigned) [Example Q19] showed an IC50 of 48.4 nM.
`Cn1cc(CC(c2ccc(-c3c(-n4cnnn4)ccc(Cl)c3F)c[n+]2[O-])n2cc(-c3ccnc(C(F)(F)F)c3)cn2)nn1` (stereo not shown) [Example P695] gave an IC50 of 43.7 nM.
